Assay results as given in patent publication US7811760B2, “Vector and method for detecting the change in transcription amount” (priority 2006, dated 2010).

Test system: ligand-dependent transcription factors (AhR, ER, and AR)
Assay: Reporter gene (luciferase) assay in Neuro2a cells carrying PGV-THp03 (SEQ ID No: 2)
Assay type: cell-based, mouse
Conditions: for luciferase activity increase: 30 hours, PGV-THp03, AhR-introduced Neuro2a
Protocol: A vector (PGV-THp03) containing the upstream region (SEQ ID No: 2) ranging from about −300 to 0 position of the TH gene-coding region, which was prepared in Example 4, was used. Neuro2a was used as the cell.
Two kinds of vectors, pcDNA4-rAhR (Example 1) and pcDNA4/V5-His/lacZ (Invitrogen), were introduced into Neuro2a, together with PGV-THp03. pcDNA4-rAhR was introduced for constitutive expression of the SD-line rat AhR gene (SEQ ID No: 10) in the cell, and pcDNA4/V5-His/lacZ was introduced for normalization of the vector transfection efficiency.
The vectors were introduced into the cell by using LIPOFECTAMINE 2000 (Invitrogen). The cell was cultured on a 24-well plate, and the operation was performed according to the manual of Invitrogen. A total of […] of vectors (0.4 μg of PGV-THp03, 0.2 μg of pcDNA4-rAhR, and 0.2 μg of pcDNA4/V5-His/lacZ) suspended in 50 μl of OPTI-MEM medium and 2 μl of LIPOFECTAMINE 2000 suspended in 50 μl of OPTI-MEM medium were mixed, and incubated at room temperature for 20 minutes to form nucleic acid/LIPOFECTAMINE 2000 complex. The obtained suspension containing the complex was added to Neuro2a cell culture, which has been previously cultured overnight in 500 μl of DF1:1 medium (containing 10% fetal calf serum) (0.8×10^5 cells were seeded on previous day), to allow incorporation of the vectors into the cell. The cell was cultured additionally for 24 hours after transfection, for the purpose of improvement in vector incorporation efficiency and expression of the protein derived from the introduced vectors.
As the test substances, vinclozolin (10 μM), dimethyl phthalate (10 μM), benzopyrene (1 μM), and dioxin (TCDD) (10 nM) were used. After the transfection and the additional incubation for 24 hours, the medium was replaced with a fresh medium containing any one of the test substances, and the cell was cultured additionally for 30 hours. After 30 hours, the medium was removed from the 24-well plate, and the cell was washed with phosphate buffer twice. 100 μl of a protein extraction solution (manufactured by TOYO B-NET) was added to each well, and the cell suspension was stirred gently at room temperature for 15 minutes and then frozen at −80° C. The frozen solution was thawed at room temperature, and the resulting solution was recovered in a tube and diluted ten times with a protein extraction reagent containing 1 mg/ml bovine serum albumin luciferase and β-galactosidase activities in the diluted solution were measured, and the expression amount of the reporter gene was calculated as a relative luminescence intensity per 1 ng of β-galactosidase per second (RLU/sec/ng β-galactosidase).

| SMILES | luciferase activity increase (10 μM) | change in luciferase activity (10 μM, PGV-THp03, cell with no AhR introduced) | luciferase activity increase (1 μM) |
| --- | --- | --- | --- |
| COC(=O)c1ccccc1C(=O)OC [Dimethyl phthalate, dimethyl phthalate] | approximately 1.2 times |  |  |
| C=CC1(C)OC(=O)N(c2cc(Cl)cc(Cl)c2)C1=O (stereo not shown) [vinclozolin] | approximately 1.3 times | no change in luciferase activity |  |
| c1ccc2c(c1)c1cccc3ccc4cccc2c4c31 [benzopyrene] |  |  | approximately 1.3 times |
